Holding throughout (format): in vivo, Arabidopsis thaliana
Assay [1] deals with Arabidopsis seedlings. Kind of assay: Dose-response analysis for somatic embryo induction in containers (circa 30 seeds in 30 ml medium; FIG. 2, FIG. 4). An excerpt:
(§1) The chemical screen was based on a modified version of an Arabidopsis somatic embryogenesis protocol that uses germinated seeds as explants (see Kobayashi et al., 2010 Kobayashi T, Nagayama Y, Higashi K and Kobayashi M. (2010). Establishment of a tissue culture system for somatic embryogenesis from germinating embryos of Arabidopsis thaliana Plant Biotech. 27: 359-364). In the original protocol, seeds were germinated on solid medium for one day, then the embryos were removed from the seed coat and transferred to solid media containing 4.5 μM 2,4-D to stimulate somatic embryo development. In this example, the protocol is simplified by germinating and culturing the seeds continuously in liquid medium containing 1 μM 2,4-D. Under optimized culture conditions (circa 30 seeds in 30 ml medium) approximately 18% of Col0 seeds form somatic embryos.
Approximately 10 surface-sterilized Columbia (Col-0) seeds were added to each well. The seeds were stratified at 4° C. in the dark for two days and then grown in on a rotary shaker (100 rpm/min) on a 16 h/8 h day/night cycle at 25° C. The number of seedlings that formed somatic embryos was counted two weeks later. […] Positive compounds were analysed using ChemMine (http://bioweb.ucr.edu/ChemMineV2/), ChemSpider (http://www.chemspider.com/) and the ZINC database (http://zinc.docking.org) for analogues with a putative biological function. […]

In assay [2] the test system is Arabidopsis seedlings. In words: Somatic embryogenesis at increasing 2,4-D concentrations with or without 25 μM C#5 (FIG. 3). The method, then: All subsequent experiments were performed under the conditions described above, but using 100 ml containers (Greiner) containing 30 ml of medium media using approximately 30 seeds/container. All hormones were ordered from Duchefa and Dicamba from Sigma-Aldrich.
2,4-D is widely used to induce somatic embryogenesis from plant explant. In Arabidopsis immature zygotic embryos occasionally form somatic embryos when grown in basal medium, while germinating embryos or other vegetative tissues are unable to form embryos.

Assay [3] has as its system Arabidopsis seedlings. Kind of assay: Testing of compounds for somatic embryogenesis activity in the presence of 2,4-D (FIG. 1). The following applies: in the presence of 1 μM 2,4-D.
From the text: as §1, with “embryos. […]” for “embryos.”
Approximately 10 surface-sterilized Columbia (Col-0) seeds were added to each well. […] The number of seedlings that formed somatic embryos was counted two weeks later. […] Positive compounds were analysed using ChemMine (http://bioweb.ucr.edu/ChemMineV2/), ChemSpider (http://www.chemspider.com/) and the ZINC database (http://zinc.docking.org) for analogues with a putative biological function. […]

As to `O=C(O)COc1ccc(Cl)cc1Cl` [2,4-D, 2,4-dichlorophenoxyacetic acid, reference compound], in the assay with Arabidopsis seedlings [1] (liquid medium containing 1 μM 2,4-D alone, circa 30 seeds in 30 ml medium), the “Col0 seeds that form somatic embryos” value is “approximately 18%”.

As for `CC1=C(C(=O)OC2CCCC2)C(c2ccncc2)C2=C(CC(C)(C)CC2=O)N1` (stereo not drawn) [C#5, cyclopentyl 2,7,7-trimethyl-5-oxo-4-(4-pyridinyl)-1,4,5,6,7,8-hexahydro-3-quinolinecarboxylate], the “seedlings with somatic embryo development” value in the assay with Arabidopsis seedlings [1] (at about 10 to about 50 μM compound, compared to circa 5% of seedlings in the control) is recorded as “about 50%”. Also, in the assay with Arabidopsis seedlings [2] (25 μM C#5, 0 μM 2,4-D), the “somatic embryo formation in the absence of 2,4-D” value is given as “not able to induce somatic embryo formation”. For the same molecule, the “somatic embryo formation at all of the tested 2,4-D concentrations” value with Arabidopsis seedlings [2] (25 μM C#5, 2,4-D up to 2 μM, versus control (2,4-D only)) was “did enhance somatic embryo formation”. In addition, the “threshold concentration of 2,4-D needed to achieve enhanced SE” value in the assay with Arabidopsis seedlings [2] (using 25 μM of C#5, seedlings grown in containers) was “about 0.4 μM”. Further, the “level of SE, as measured by the percentage of seedlings with somatic embryos” value with Arabidopsis seedlings [3] is on record as “high percentage”.
